Laboratory results published in patent US20110091872A1, “DETECTING TRIAZOLE RESISTANCE IN ASPERGILLUS” (priority 2007, published 2011).
In brackets after ≈: the same amount, converted by molar mass. Like-named read-outs stand apart in the source and are kept apart here.

How the values were obtained:
[1] = tested on: wild type recipient strain transformed with mutant AzRF1; assay: NCCLS M38-A microdilution MIC, transformants carrying mutant TF AzRF1; assay type: cell-based; conditions: Aspergillus fumigatus, 48 h
Experimental: (§1) The eight putative C6 transcription factors (TFs) were amplified from a well-characterized itraconazole-resistant strain known to over-express ABC transporters. Nascimento et al. Antimicrob. Agents Chemother. (2003) 47:1719-26. The putative mutant TFs were introduced into a wild type recipient strain and transformants screened for resistance to 10 μg/mlitraconazole. Minimum inhibition concentrations (MICs) were determined by the National Committee for Clinical Laboratory Standards (NCCLS) M38-A microdilution method in RPMI 1640 medium in the presence of 0.01 to 16.0 μg/ml after 48 hours of growth at 37° C.
AzRF1 is a C6 transcription factor that is closely related to Tac1 of C. albicans with 35% sequence identity to the Tac1 proteins (GeneBank accession number ABD85289.1).

[2] = tested on: AzRF1-H (homologous recombinant AzRF1-mutant of KU80); assay: NCCLS M38-A microdilution MIC, mutant AzRF1-H; assay type: cell-based; conditions: Aspergillus fumigatus; strain AzRF1-H; RPMI 1640, 48 hours, 37° C.
Experimental: as §1

[3] = tested on: AzRF1-R (derived from AzRF1-A after plasmid eviction); assay: NCCLS M38-A microdilution MIC, strain AzRF1-R; assay type: cell-based; conditions: Aspergillus fumigatus, 48 h
Experimental: as §1
(§2) Plasmid pRG3-AMA1-AzRF1 was transformed into the triazole susceptible Ku80 strain. The derived mutant AzRF1-A, containing the mutant AzRF1 in an autonomous replicating plasmid was also resistant to triazole drugs (table 2). […] Strain AzRF1-R had restored sensitivity to triazole drugs (table 2).

[4] = tested on: KU80 DELTA (triazole susceptible Ku80 strain); assay: NCCLS M38-A microdilution MIC, parent strain KU80 DELTA; assay type: cell-based; conditions: Aspergillus fumigatus, 48 h
Experimental: as §1, §2

[5] = tested on: AzRF1-M (homologous recombinant AzRF1-mutant of ATCC 13073); assay: NCCLS M38-A microdilution MIC, mutant AzRF1-M; assay type: cell-based, Aspergillus fumigatus; conditions: strain AzRF1-M, RPMI 1640, 48 hours, 37° C.
Experimental: as §1, §2

[6] = tested on: A. fumigatus wild type strain ATCC 13073; assay: NCCLS M38-A microdilution MIC, parent strain ATCC 13073; assay type: cell-based; conditions: Aspergillus fumigatus, ATCC13073, RPMI 1640, 48 hours, 37° C.
Experimental: as §1

[7] = tested on: AzRF1-A (KU80 with mutant AzRF1 in autonomously replicating plasmid pRG3-AMA1-AzRF1); assay: NCCLS M38-A microdilution MIC, mutant AzRF1-A; assay type: cell-based; conditions: Aspergillus fumigatus; strain AzRF1-A; RPMI 1640, 48 hours, 37° C.
Experimental: as §1, §2

[8] = Aspergillus fumigatus, ATCC13073, read-out: MIC

SMILES	MIC [1] [µg/mL]	MIC [2] [µg/mL]	MIC [3] [µg/mL]	MIC [4] [µg/mL]	MIC [5, 8] [µg/mL]	MIC [5] [µg/mL]	MIC [6] [µg/mL]	MIC [7] [µg/mL]
C[C@@H](c1ncncc1F)[C@](O)(Cn1cncn1)c1ccc(F)cc1F [VORICONAZOLE, voriconazole]	> 8	> 8	> 8	0.06 (≈ 0.172 µM)	> 8	>8.0	0.06 (≈ 0.172 µM)	> 8
CCC(C)n1ncn(-c2ccc(N3CCN(c4ccc(OCC5COC(Cn6cncn6)(c6ccc(Cl)cc6Cl)O5)cc4)CC3)cc2)c1=O (stereo not shown) [ITRACONAZOLE, itraconazole]	> 16	> 16	> 16	0.25 (≈ 0.354 µM)	> 16	>16.0	0.25 (≈ 0.354 µM)	> 16
